Assay results as given in patent publication US10976319B2, “Cell response assay for cancer and methods of producing and using same” (Siemens Healthcare Diagnostics Inc., priority 2011, dated 2021).
“And” between values parts separate entries of the source, which are not always exact repeats. Equal values may be shown once.

Tests used:
[1] = cited from earlier work; for log Ka: Eu2+ complexed by amine poly carboxylate ions
breast cancer cells = experiment: Cell response assay for breast cancer, cells before and after camptothecin treatment; type: cell-based
Protocol: (§1) The procedure to test the method was to collect 4 mL normal whole blood fresh into a VACUTAINER® tube (BD 6 mL VACUTAINER® K2EDTA tube, 10.8 mg, ref 367863, Becton Dickinson, Oakville, ON) and transfer the blood into a round centrifuge tube sealed with top. Cancer cells were added by 40 μL of breast cell cancer suspension to obtain a range of 3000 to 8000 cells/mL (8 cells/4 or 1-2 per high powered filed HRP (HRP=0.2 μL)). The blood was lysed by adding 3 mL of lysis buffer (155 mM NH4Cl, 20 mM KHCO3, 0.1 mM Na2EDTA, pH 7.4). The tubes were rolled tubes to assure that the cells were evenly distributed and that lysis was complete, and then the sample was spun down for 15 minutes at 12,000 rpm. Next, the plasma was decanted as waste supernatant, and 4.0 mL of TES buffer (50 mM N-Tris [Hydroxymethyl]-2-aminoethane-sulfonic acid: TES, pH 7.4, 2150 mM NaCl, 2 mM MgSO4 and 1 mM KCO3) and 1% albumin was added, and the tube was rocked to mix the cells. The tube was spun down again for 15 minutes at 12,000 rpm, and the supernatant was decanted as waste. A final 2.0 mL of TES wash buffer was added with rocking to mix cells.
(§2) The cells were then reacted with the reagents by taking 0.5 mL of washed blood to the centrifuge tube, and 40 μL of antibodies for HER2/neu labeled with Cy5 and 40 μL of antibodies for urokinase like plasminogen activator (uPA) or plasminogen activator inhibitor (PAI-1) labeled with Texas Red (at working stock of 0.001 to 0.1 mg/mL) and PL2L piwi like labeled with FITC (at working stock of 0.001 to 0.1 mg/mL) were added. Next, 10 μl of a 100 μg/ml 4,6 Diamidino-2-phenylindole dihydrochloride (DAPI; a nucleic acid binding probe) was added from a solution in TES buffer. This was followed by incubation for 15 minutes at 37° C.
(§3) The sample was centrifuged down for 5 minutes @ 7500 rpm, and the supernatant was decanted off as waste (^˜450 μL). 500 μL of TES buffer was then added, and the sample was vortexed and centrifuged down at 5 minutes @ 7500 rpm. Again, the supernatant was decanted off by tapping as waste (^˜450 μL). A final 500 μL of TES wash buffer was added for final imaging, and 5 μL of the solution was placed on a slide with a long cover slip of glass. Phase contrast and fluorescence microscopy was conducted with the Leica DM5000 (Leica Microsystems, Buffalo Grove, Ill.). A sample of cells was stained with the PSS-550 probe (ex 553, em 615 nm) and measured with an excitation band pass filter at 540-580 nm and an emission band pass filter at 610-680 nm to determine cell membrane flopping as a measure of cell death in addition to cell counts.
The Texas Red label (ex 592, em 614 nm) was measured with an excitation band pass filter at 540-580 nm and an emission band pass filter at 610-680 nm. The FITC label (ex 488, em 525 nm) was measured with an excitation band pass filter at 460-500 nm and an emission band pass filter at 512-543 nm. The DAPI probe (ex 355, em 460 nm) was measured with an excitation band pass filter at 340-380 nm and an emission band pass filter at 450-490 nm. The Cy5 label (ex 646, em 676 nm) was measured with an excitation band pass filter at 590-650 nm and an emission band pass filter at 665-735 nm.
A novel cell response assay for breast cancer was developed by using HER2/neu as a tissue type marker for carcinoma breast cancer (Biomarker A) that is always present in the disease state. […]

prostate cancer cells = experiment: Cell response assay for prostate cancer, cells before and after camptothecin treatment; type: cell-based
Protocol: as §1, with “prostate” for “breast”, “cells/μL” for “cells/4”
as §2, with “PSA” for “HER2/neu”
as §3, with “Ill.).” for “Ill.). A sample of cells was stained with the PSS-550 probe (ex 553, em 615 nm) and measured with an excitation band pass filter at 540-580 nm and an emission band pass filter at 610-680 nm to determine cell membrane flopping as a measure of cell death in addition to cell counts.”
The Texas Red label (ex 592, em 614 nm) was measured with a excitation band pass filter at 540-580 nm and emission band pass filter at 610-680 nm. The FITC label (ex 488, em 525 nm) was measured with an excitation band pass filter at 460-500 nm and an emission band pass filter at 512-543 nm. The DAPI probe (ex 355, em 460 nm) was measured with an excitation band pass filter at 340-380 nm and an emission band pass filter at 450-490 nm. The Cy5 label (ex 646, em 676 nm) was measured with an excitation band pass filter at 590-650 nm and an emission band pass filter at 665-735 nm.
A novel cell response assay for prostate cancer was developed by using PSA as a tissue type marker for prostate carcinoma (Biomarker A) that is always present in the disease state. […] Chemo resistance nature (Biomarker C) was determined using PL2L piwi like antigen to determine the inhibitory response to tissue invasiveness. […]

[2] = camptothecin concentration adjusted
[3] = when the cell death % was highest

Question: Which “log Ka” value [1] does the source give for `O=C(O)CN(CC(=O)O)C1CCCCC1N(CC(=O)O)CC(=O)O` (centres unmarked) [DCTA] here?
Answer: 19

Question: Which “log Ka” value [1] does the source give for `O=C(O)CN(CCN(CC(=O)O)CC(=O)O)CCN(CC(=O)O)CC(=O)O` [DTPA] here?
Answer: 23

Question: With `O=C(O)CN(CCN(CC(=O)O)CC(=O)O)CC(=O)O` [EDTA] as the molecule, how does the “log Ka” value [1] read?
Answer: 17

Question: Which “log K” value ([1]; europium chelate) does the source give for `CC(=O)CC(=O)c1ccccc1` [HBA, benzoylacetone] here?
Answer: 18.9

Question: Which “log Ka” value [1] does the source give for `O=C(O)CN(CCO)CCN(CC(=O)O)CC(=O)O` [HEDTA] here?
Answer: 15

Question: For `O=C(O)CNCC(=O)O` [IMDA], which “log Ka” value [1] is on record?
Answer: 6

Question: Which “association constant (log Ka)” value ([1]; europium chelate, when converted to enolate) does the source give for `O=C(CC(=O)C(F)(F)F)c1cccs1` [TTA, thenoyltriflouracetone] here?
Answer: 8.0

Question: For `CC[C@@]1(O)C(=O)OCc2c1cc1n(c2=O)Cc2cc3ccccc3nc2-1` [camptothecin], which cancer cell count (breast cancer cells; as the cell death % increased) is on record?
Answer: decrease

Question: And the phosphatidylserine flopping (breast cancer cells; as the cell death % increased)?
Answer: increased

Question: And the “% of the cancer cells in cultures killed” value (breast cancer cells; [2])?
Answer: > 80% and 60% and 40%

Question: And the “biomarker B, namely uPA and PA1 (metastatic potential)” value (breast cancer cells; [3])?
Answer: increase

Question: What about the “biomarker C, namely PL2L piwi like (chemo resistance)” value (breast cancer cells; [3]) of the same molecule?
Answer: decrease

Question: And the cancer cell count (prostate cancer cells; as the cell death % increased)?
Answer: decrease

Question: And the phosphatidylserine flopping (prostate cancer cells; as the cell death % increased)?
Answer: increased

Question: What about the “% of the cancer cells in cultures killed” value (prostate cancer cells; [2]) of the same molecule?
Answer: > 80% and 60% and 40%

Question: What about the “biomarker B, namely uPA and PA1 (metastatic potential)” value (prostate cancer cells; [3]) of the same molecule?
Answer: increase

Question: And the “biomarker C, namely PL2L piwi like (chemo resistance)” value (prostate cancer cells; [3])?
Answer: decrease
